The values that follow come from ChEMBL document CHEMBL1121730, “beta-Adrenergic blocking agents. alpha- and gamma-methyl(aryloxy)propanolamines” (J Med Chem, 1981).

This assay concerns the target Adrenergic receptor beta (Rattus norvegicus, UniProt P18090+P10608+P26255). In words: Binding affinity against Beta adrenergic receptor in C6-2B astrocytoma cells, using [125I]-iodohydroxybenzylpindolol-benzylpindolol([125I]-HYP). The format is cell-based.
`C=CCc1ccccc1OC(C)C(O)CNC(C)C` (stereo not given) came in with a dissociation constant (Kd) of 50 nM.
In turn, `CC(C)NCC(O)C(C)Oc1cccc2ccccc12` (stereo not given) registered a Kd of 40 nM.
`Cc1ccc(OC(C)C(O)CNC(C)(C)C)cc1C` (stereo not given) showed a Kd of 200 nM.
With `CC(C)NCC(O)C(C)Oc1ccc(Cl)c(Cl)c1` (stereo not given), the Kd worked out at 500 nM.
The compound `CCc1ccc(OC(C)C(O)CNC(C)(C)C)cc1` (stereo not given) showed a Kd of 2000 nM.
To `CC(Oc1cccc2ccccc12)C(O)CNC(C)(C)C` (stereo not given) belongs 5 nM; to `Cc1ccc(OC(C)C(O)CNC(C)C)cc1C` (stereo not given), 200 nM.
For `CC(Oc1ccccc1)C(O)CNC(C)(C)C` (stereo not given), the dissociation constant Kd was determined as 300 nM.
To `CCc1ccc(OC(C)C(O)CNC(C)C)cc1` (stereo not given) belongs 2000 nM; to `C=CCc1ccccc1OC(C)C(O)CNC(C)(C)C` (stereo not given), 15 nM.
